Legend:
[1] = target: CDK2/Cyclin E1 (Homo sapiens, UniProt P24941); experiment: CDK2/Cyclin E1 Biochemical Assay (TR-FRET), 0.060 mM ATP; details: 0.15 μM Rb (Ser780)-biotin substrate, pH7.0, 60 min preincubation, 120 min reaction, room temperature
Procedure, shortened: (§1)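 TR-FRET readout: 665/620 nm ratio from Eu-cryptate anti-pRb(Ser780) antibody plus streptavidin-XL665, converted to % inhibition and fitted (4-parameter logistic) for IC50. Reactions used 0.15 μM biotinylated Rb (Ser780) substrate, compound 0–10 μM, 60 min enzyme–compound preincubation, then 120 min reaction at room temperature.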

[2] = target: CDK1/Cyclin B1 (Homo sapiens, UniProt P06493); experiment: CDK1/Cyclin B1 Biochemical Assay (TR-FRET), 0.015 mM ATP; details: 0.15 μM Rb (Ser780)-biotin substrate, pH7.0, 60 min preincubation, 120 min reaction, room temperature
CDK1/Cyclin B1, sequence (P06493 whole entry): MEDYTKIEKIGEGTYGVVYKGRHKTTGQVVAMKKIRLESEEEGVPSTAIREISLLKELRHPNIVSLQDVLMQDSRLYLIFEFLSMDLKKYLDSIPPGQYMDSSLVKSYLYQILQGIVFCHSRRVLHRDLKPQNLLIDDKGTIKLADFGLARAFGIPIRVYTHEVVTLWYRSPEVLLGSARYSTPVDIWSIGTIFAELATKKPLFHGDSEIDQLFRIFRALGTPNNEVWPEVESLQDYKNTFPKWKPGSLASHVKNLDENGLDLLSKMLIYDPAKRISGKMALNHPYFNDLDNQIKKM
CDK1/Cyclin B1, sequence (P14635 whole entry partner): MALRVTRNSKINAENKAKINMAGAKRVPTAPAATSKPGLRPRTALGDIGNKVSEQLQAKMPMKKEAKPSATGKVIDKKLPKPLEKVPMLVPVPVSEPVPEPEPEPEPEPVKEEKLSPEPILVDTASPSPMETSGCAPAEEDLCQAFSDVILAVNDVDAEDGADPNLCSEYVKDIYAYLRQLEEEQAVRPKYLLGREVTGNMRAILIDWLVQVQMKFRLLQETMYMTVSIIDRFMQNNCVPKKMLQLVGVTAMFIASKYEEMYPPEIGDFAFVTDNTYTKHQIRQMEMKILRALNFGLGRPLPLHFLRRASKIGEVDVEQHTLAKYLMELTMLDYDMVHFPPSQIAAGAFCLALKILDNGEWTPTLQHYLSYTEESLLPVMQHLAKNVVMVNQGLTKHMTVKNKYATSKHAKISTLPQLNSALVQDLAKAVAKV
Procedure, shortened: as §1

Row | IC50 [1] [nM] | IC50 [2] [nM] | Compound
1 | 112 | 999 | CC(C)NC(=O)O[C@H]1CC[C@@H](c2cc(Nc3ccc4c(c3)CS(=O)(=O)N4C(C)C3CCOC3)n[nH]2)C1 (relative stereo) [Example 218, cis-3-(3-((2,2-dioxido-1-(1-(tetrahydrofuran-3-yl)ethyl)-1,3-dihydrobenzo[c]isothiazol-5-yl)amino)-1H-pyrazol-5-yl)cyclopentyl isopropylcarbamate]
2 | 15 | 686 | CCCNC(=O)O[C@H]1CC[C@@H](c2cc(Nc3ccc4c(c3F)C(C)NS4(=O)=O)n[nH]2)C1 (single isomer, unassigned) [Example 53c, cis-3-(3-((4-fluoro-3-methyl-1,1-dioxido-2,3-dihydrobenzo[d]isothiazol-5-yl)amino)-1H-pyrazol-5-yl)cyclopentyl propylcarbamate]
3 | 5.4 | 364 | CC(C)NC(=O)O[C@H]1CC[C@@H](c2cc(Nc3ccc4c(c3F)CS(=O)(=O)N4C3COC3)n[nH]2)C1 (single isomer, unassigned) [Example 259a, cis-3-(3-((4-fluoro-1-(oxetan-3-yl)-2,2-dioxido-1,3-dihydrobenzo[c]isothiazol-5-yl)amino)-1H-pyrazol-5-yl)cyclopentyl isopropylcarbamate]
4 | 5.4 | 518 | CC(C)NC(=O)O[C@H]1CC[C@@H](c2cc(Nc3ccc4c(c3F)CN(C3CC3)S4(=O)=O)n[nH]2)C1 (single isomer, unassigned) [Example 116a, cis-3-(3-((2-cyclopropyl-4-fluoro-1,1-dioxido-2,3-dihydrobenzo[d]isothiazol-5-yl)amino)-1H-pyrazol-5-yl)cyclopentyl isopropylcarbamate]
5 | 16 | 962 | CC(C)NC(=O)O[C@H]1CC[C@@H](c2cc(Nc3ccc4c(c3F)CN(CCN(C)C)S4(=O)=O)n[nH]2)C1 (relative stereo) [Example 74, cis-3-(3-((2-(2-(dimethylamino)ethyl)-4-fluoro-1,1-dioxido-2,3-dihydrobenzo[d]isothiazol-5-yl)amino-1H-pyrazol-5-yl)cyclopentyl isopropylcarbamate]
6 | 2.6 | 221 | CC1(NC(=O)O[C@H]2CC[C@@H](c3cc(Nc4ccc5c(c4F)CN(C4CC4)S5(=O)=O)n[nH]3)C2)CCOC1 (relative stereo) [Example 358, cis-3-(3-((2-cyclopropyl-4-fluoro-1,1-dioxido-2,3-dihydrobenzo[d]isothiazol-5-yl)amino)-1H-pyrazol-5-yl)cyclopentyl(3-methyltetrahydrofuran-3-yl)carbamate]
7 | 2.1 | 31 | COCC(C)(C)NC(=O)O[C@H]1CC[C@@H](c2cc(Nc3ccc4c(c3F)CS(=O)(=O)N4)n[nH]2)C1 (relative stereo) [Example 376, cis-3-(3-((4-fluoro-2,2-dioxido-1,3-dihydrobenzo[c]isothiazol-5-yl)amino)-1H-pyrazol-5-yl)cyclopentyl(1-methoxy-2-methylpropan-2-yl)carbamate]
8 | 2.9 | 102 | COc1c(Nc2cc([C@@H]3CC[C@H](OC(=O)NC(C)C)C3)[nH]n2)ccc2c1S(=O)(=O)NC2 (relative stereo) [Example 180, cis-3-(3-((7-methoxy-1,1-dioxido-2,3-dihydrobenzo[d]isothiazol-6-yl)amino)-1H-pyrazol-5-yl)cyclopentyl isopropylcarbamate]
9 | 49 | 1360 | CCCNC(=O)O[C@H]1CC[C@@H](c2cc(Nc3ccc4c(c3Cl)CNS4(=O)=O)n[nH]2)C1 (single isomer, unassigned) [Example 39a, cis-3-(3-((4-chloro-1,1-dioxido-2,3-dihydrobenzo[d]isothiazol-5-yl)amino)-1H-pyrazol-5-yl)cyclopentyl propylcarbamate]
10 | 2.3 | 187 | O=C(NCCC(F)(F)F)O[C@H]1CC[C@@H](c2cc(Nc3ccc4c(c3F)CNS4(=O)=O)n[nH]2)C1 (single isomer, unassigned) [Example 154a, cis-3-(3-((4-fluoro-1,1-dioxido-2,3-dihydrobenzo[d]isothiazol-5-yl)amino)-1H-pyrazol-5-yl)cyclopentyl(3,3,3-trifluoropropyl)carbamate]
11 | 7.5 | 94 | [2H]C([2H])([2H])N1c2c(F)cc(Nc3cc([C@@H]4CC[C@H](OC(=O)NCCC)C4)[nH]n3)cc2CS1(=O)=O (single isomer, unassigned) [Example 290b, cis-3-(3-((7-fluoro-1-(methyl-d3)-2,2-dioxido-1,3-dihydrobenzo[c]isothiazol-5-yl)amino)-1H-pyrazol-5-yl)cyclopentyl propylcarbamate]
12 | 30 | 1090 | CC(C)NC(=O)O[C@H]1CC[C@@H](c2cc(Nc3cc4c(cc3F)S(=O)(=O)NC4(C)C)n[nH]2)C1 (relative stereo) [Example 14, cis-3-(3-((6-fluoro-3,3-dimethyl-1,1-dioxido-2,3-dihydrobenzo[d]isothiazol-5-yl)amino)-1H-pyrazol-5-yl)cyclopentyl isopropylcarbamate]
13 | 2.5 | 96 | CC1(NC(=O)O[C@H]2CC[C@@H](c3cc(Nc4ccc5c(c4F)CN(CCO)S5(=O)=O)n[nH]3)C2)CC1 (single isomer, unassigned) [Example 128b, cis-3-(3-((4-fluoro-2-(2-hydroxyethyl)-1,1-dioxido-2,3-dihydrobenzo[d]isothiazol-5-yl)amino)-1H-pyrazol-5-yl)cyclopentyl(1-methylcyclopropyl)carbamate]
14 | 2 | 77 | COCC(C)NC(=O)O[C@H]1CC[C@@H](c2cc(Nc3ccc4c(c3)CS(=O)(=O)N4C)n[nH]2)C1 (relative stereo) [Example 226, cis-3-(3-((1-methyl-2,2-dioxido-1,3-dihydrobenzo[c]isothiazol-5-yl)amino)-1H-pyrazol-5-yl)cyclopentyl(1-methoxypropan-2-yl)carbamate]
15 | 0.9 | 19 | O=C(NC1CCCC1)O[C@H]1CC[C@@H](c2cc(Nc3ccc4c(c3)CS(=O)(=O)N4)n[nH]2)C1 (single isomer, unassigned) [Example 381b, cis-3-(3-((2,2-dioxido-1,3-dihydrobenzo[c]isothiazol-5-yl)amino)-1H-pyrazol-5-yl)cyclopentyl cyclopentylcarbamate]
16 | 0.8 | 22 | CC(C)NC(=O)O[C@H]1CC[C@@H](c2cc(Nc3ccc4c(c3)C(C)S(=O)(=O)N4)n[nH]2)C1 (single isomer, unassigned) [Example 384a, cis-3-(3-((3-methyl-2,2-dioxido-1,3-dihydrobenzo[c]isothiazol-5-yl)amino)-1H-pyrazol-5-yl)cyclopentyl isopropylcarbamate]
17 | 3.3 | 130 | CC(C)NC(=O)O[C@H]1CC[C@@H](c2cc(Nc3ccc4c(c3F)CN(C)S4(=O)=O)n[nH]2)C1 (single isomer, unassigned) [Example 121b, cis-3-(3-((4-fluoro-2-methyl-1,1-dioxido-2,3-dihydrobenzo[d]isothiazol-5-yl)amino)-1H-pyrazol-5-yl)cyclopentyl isopropylcarbamate]
18 | 16 | 356 | [2H]C([2H])([2H])N1c2c(F)cc(Nc3cc([C@@H]4CC[C@H](OC(=O)NCCC)C4)[nH]n3)cc2CS1(=O)=O (single isomer, unassigned) [Example 290a, cis-3-(3-((7-fluoro-1-(methyl-d3)-2,2-dioxido-1,3-dihydrobenzo[c]isothiazol-5-yl)amino)-1H-pyrazol-5-yl)cyclopentyl propylcarbamate]
19 | 36 | 1550 | CC(C)NC(=O)O[C@H]1CC[C@@H](c2cc(Nc3ccc4c(c3F)CN(C3CN(Cc5ccccc5)C3)S4(=O)=O)n[nH]2)C1 (relative stereo) [Example 92, cis-3-(3-((2-(1-benzylazetidin-3-yl)-4-fluoro-1,1-dioxido-2,3-dihydrobenzo[d]isothiazol-5-yl)amino)-1H-pyrazol-5-yl)cyclopentyl isopropylcarbamate]
20 | 4.2 | 95 | CC(C)NC(=O)O[C@H]1CC[C@@H](c2cc(Nc3ccc4c(c3)S(=O)(=O)NC4C)[nH]n2)C1 (single isomer, unassigned) [Example 5c, cis-3-(5-((3-methyl-1,1-dioxido-2,3-dihydrobenzo[d]isothiazol-6-yl)amino)-1H-pyrazol-3-yl)cyclopentyl isopropylcarbamate]
21 | 5.2 | 236 | CC(C)NC(=O)O[C@H]1CC[C@@H](c2cc(Nc3ccc4c(c3F)CN(C3CCN(C)C(=O)C3)S4(=O)=O)n[nH]2)C1 (relative stereo) [Example 100, cis-3-(3-((4-fluoro-2-(1-methyl-2-oxopiperidin-4-yl)-1,1-dioxido-2,3-dihydrobenzo[d]isothiazol-5-yl)amino)-1H-pyrazol-5-yl)cyclopentyl isopropylcarbamate]
22 | 23 | 1070 | COc1cc2c(cc1Nc1cc([C@@H]3CC[C@H](OC(=O)NC(C)C)C3)[nH]n1)CNS2(=O)=O (relative stereo) [Example 15, cis-3-(3-((6-methoxy-1,1-dioxido-2,3-dihydrobenzo[d]isothiazol-5-yl)amino)-1H-pyrazol-5-yl)cyclopentyl isopropylcarbamate]
23 | 1.4 | 38 | CC1(NC(=O)O[C@H]2CC[C@@H](c3cc(Nc4ccc5c(c4F)CNS5(=O)=O)n[nH]3)C2)CC1 (single isomer, unassigned) [Example 140b, cis-3-(3-((4-fluoro-1,1-dioxido-2,3-dihydrobenzo[d]isothiazol-5-yl)amino)-1H-pyrazol-5-yl)cyclopentyl(1-methylcyclopropyl)carbamate]

— patent US20260297080A1, “BICYCLIC COMPOUNDS AS CDK INHIBITORS” (BeOne Medicines I GmbH, priority 2022, published 2026)
